Patent US9776979B2, “EBI2 modulators” (Sanford-Burnham Medical Research Institute, priority 2013, dated 2017)

molecular target: EBI2 (Homo sapiens, UniProt P32249); experiment: Cell-based luminescent assay (EBI2 modulation); details: not given
Outline: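 Cells plated overnight at 37° C, then exposed to compound at 4-5 uM final with 80 nM 7a,25-OHC agonist for 60 min at 37° C. Luminescence read after 60 min detection at 25° C in the dark; values normalized to neutral and stimulator controls and plate-pattern corrected.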

EBI2, sequence (P32249 whole entry): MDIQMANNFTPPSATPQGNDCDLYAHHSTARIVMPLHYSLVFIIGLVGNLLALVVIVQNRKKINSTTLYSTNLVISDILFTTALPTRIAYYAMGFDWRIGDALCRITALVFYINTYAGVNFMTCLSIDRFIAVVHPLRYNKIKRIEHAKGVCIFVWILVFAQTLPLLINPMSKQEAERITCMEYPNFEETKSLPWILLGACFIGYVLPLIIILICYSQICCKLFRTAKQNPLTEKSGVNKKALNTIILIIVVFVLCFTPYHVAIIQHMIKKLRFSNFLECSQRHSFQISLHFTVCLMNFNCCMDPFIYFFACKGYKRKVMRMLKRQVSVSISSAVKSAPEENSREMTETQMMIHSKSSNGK

| Compound | IC50 [nM] |
| --- | --- |
| O=C(/C=C/c1ccccc1)N1CCN(Cc2ccc(Cl)cc2)CC1 [Compound C354, (2E)-1-{4-[(4-chlorophenyl)methyl]piperazinyl}-3-phenylprop-2-en-1-one] | < 100 |

same assay, conditions: cell-based luminescence; 7a,25-OHC final assay concentration 80 nM; 60 minutes incubation; read-out: IC50

| IC50 [nM] | Compound |
| --- | --- |
| < 100 | O=C(C#Cc1ccc(C(F)(F)F)cc1)N1CCN(C(=O)c2ccc(Cl)cc2)CC1 [Compound C60, 1-{4-[(4-chlorophenyl)carbonyl]piperazinyl}-3-[4-(trifluoromethyl)phenyl]prop-2-yn-1-one] |
| < 100 | Nc1ccc(/C=C/C(=O)N2CCN(C(c3ccccc3)c3ccccc3)CC2)cc1 [Compound C305, (2E)-3-(4-aminophenyl)-1-[4-(diphenylmethyl)piperazinyl]prop-2-en-1-one] |
| < 100 | CC(C)CC(=O)N1CCN(C(=O)/C=C/c2ccc(Br)cc2)CC1 [Compound C118, (2E)-3-(4-bromophenyl)-1-[4-(3-methylbutanoyl)piperazinyl]prop-2-en-1-one] |
| < 100 | O=C(C#Cc1cccc(Cl)c1)N1CCN(Cc2ccc(F)cc2C(F)(F)F)CC1 [Compound C302, 3-(3-chlorophenyl)-1-(4-{[4-fluoro-2-(trifluoromethyl)phenyl]methyl}piperazinyl)prop-2-yn-1-one] |
| 100 to 500 | (2E)-3-phenyl-1-piperazinylprop-2-en-1-one [Compound C444] |
| < 100 | Nc1ccc2cc(C(=O)N3CCN(C(c4ccccc4)c4ccccc4)CC3)ccc2c1 [Compound C223, 6-amino(2-naphthyl) 4-(diphenylmethyl)piperazinyl ketone] |
| < 100 | O=C(C=Cc1ccc2c(c1)OCO2)N1CCN(C(=O)c2ccc(F)cc2)CC1 [Compound C216, 3-(2H-benzo[3,4-d]1,3-dioxolen-5-yl)-1-{4-[(4-fluorophenyl)carbonyl]piperazinyl}prop-2-en-1-one] |
| < 100 | CCCCN1CCN(C(=O)c2cc3cc(Cl)ccc3[nH]2)CC1 [Compound C368, 4-butylpiperazinyl 5-chloroindol-2-yl ketone] |
| 100 to 500 | O=C(c1cc2cc(Cl)ccc2[nH]1)N1CCN(c2ccc(F)cc2)CC1 [Compound C470, 5-chloroindol-2-yl 4-(4-fluorophenyl)piperazinyl ketone] |
| < 100 | CCC(=O)N1CCN(C(=O)/C=C/c2ccc(Br)cc2)CC1 [Compound C145, (2E)-3-(4-bromophenyl)-1-(4-propanoylpiperazinyl)prop-2-en-1-one] |
| 100 to 500 | O=C(C#Cc1ccccc1C(F)(F)F)N1CCN(Cc2ccc(C(F)(F)F)cc2)CC1 [Compound C475, 3-[2-(trifluoromethyl)phenyl]-1-(4-{[4-(trifluoromethyl)phenyl]methyl}piperazinyl)prop-2-yn-1-one] |
| 100 to 500 | O=C(C#Cc1ccc(Cl)c(Cl)c1)N1CCN(C(=O)c2ccc(F)cc2C(F)(F)F)CC1 [Compound C437, 3-(3,4-dichlorophenyl)-1-(4-{[4-fluoro-2-(trifluoromethyl)phenyl]carbonyl}piperazinyl)prop-2-yn-1-one] |
| 100 to 500 | O=C(c1cccc(B(O)O)c1)N1CCN(C(=O)c2cc3cc(Cl)ccc3[nH]2)CC1 [Compound C440, 3-(4-(5-chloro-1H-indole-2-carbonyl)piperazine-1-carbonyl)phenylboronic acid] |
| 100 to 500 | O=C(C#Cc1ccc(Cl)cc1)N1CCN(Cc2ccc(F)cc2C(F)(F)F)CC1 [Compound C435, 3-(4-chlorophenyl)-1-(4-{[4-fluoro-2-(trifluoromethyl)phenyl]methyl}piperazinyl)prop-2-yn-1-one] |
| < 100 | 4-{[3,5-bis(trifluoromethyl)phenyl]carbonyl}piperazinyl 5-(trifluoromethyl)indol-2-yl ketone [Compound C330] |
| 100 to 500 | O=C(c1cc2cc(Cl)ccc2[nH]1)N1CCN(Cc2ccc(Cl)cc2C(F)(F)F)CC1 [Compound C428, 5-chloroindol-2-yl 4-{[4-chloro-2-(trifluoromethyl)phenyl]methyl}piperazinyl ketone] |
| < 100 | O=C(c1cc2cc(Cl)ccc2[nH]1)N1CCN(C(=O)c2ccc(F)cc2F)CC1 [Compound C378, 4-[(2,4-difluorophenyl)carbonyl]piperazinyl 5-chloroindol-2-yl ketone] |
| < 100 | Cc1ccc2[nH]c(C(=O)N3CCN(Cc4ccc5c(c4)OCO5)CC3)cc2c1 [Compound C111, 4-(2H-benzo[d]1,3-dioxolan-5-ylmethyl)piperazinyl 5-methylindol-2-yl ketone] |
| 100 to 500 | O=C(C#Cc1ccc(Cl)c(Cl)c1)N1CCN(Cc2ccc(F)cc2)CC1 [Compound C284, 3-(3,4-dichlorophenyl)-1-{4-[(4-fluorophenyl)methyl]piperazinyl}prop-2-yn-1-one] |
| < 100 | O=C(c1cc2cc(C(F)(F)F)ccc2[nH]1)N1CCN(C(c2ccccc2)c2ccccc2)CC1 [Compound C79, 4-(diphenylmethyl)piperazinyl 5-(trifluoromethyl)indol-2-yl ketone] |
| 100 to 500 | 4-(diphenylmethyl)piperazinyl pyrrolo[2,3-c]pyridin-2-yl ketone [Compound C431] |
| 100 to 500 | O=C(C=Cc1ccc2c(c1)OCO2)N1CCN(Cc2ccc(F)cc2)CC1 [Compound C463, 3-(2H-benzo[3,4-d]1,3-dioxolan-5-yl)-1-{4-[(4-fluorophenyl)methyl]piperazinyl}prop-2-en-1-one] |
| < 100 | O=C(C#Cc1ccc(C(F)(F)F)cc1)N1CCN(C(=O)c2ccc(C(F)(F)F)cc2)CC1 [Compound C84, 3-[4-(trifluoromethyl)phenyl]-1-(4-{[4-(trifluoromethyl)phenyl]carbonyl}piperazinyl)prop-2-yn-1-one] |
| 100 to 500 | 6-fluoroindol-2-yl 4-[(4-fluorophenyl)carbonyl]piperazinyl ketone [Compound C425] |
| < 100 | O=C(c1ccc(C(F)(F)F)cc1)N1CCN(C(=O)c2cc3cc(C(F)(F)F)ccc3[nH]2)CC1 [Compound C133, 5-(trifluoromethyl)indol-2-yl 4-{[4-(trifluoromethyl)phenyl]carbonyl}piperazinyl ketone] |
| < 100 | O=C(c1cc2cc(Cl)ccc2[nH]1)N1CCN(Cc2ccc(C(F)(F)F)cc2)CC1 [Compound C331, 5-chloroindol-2-yl 4-{[4-(trifluoromethyl)phenyl]methyl}piperazinyl ketone] |
| < 100 | CCC(C)C(=O)N1CCN(C(=O)/C=C/c2ccc(Br)cc2)CC1 (stereo not drawn) [Compound C78, (2E)-3-(4-bromophenyl)-1-[4-(2-methylbutanoyl)piperazinyl]prop-2-en-1-one] |
| < 100 | 1-[4-(diphenylmethyl)piperazinyl]-3-(4-bromophenyl)prop-2-yn-1-one [Compound C50] |
| < 100 | O=C(c1cc2cc(Cl)ccc2[nH]1)N1CCC(Oc2ccc(Cl)cc2)CC1 [Compound C317, 5-chloroindol-2-yl 4-(4-chlorophenoxy)piperidyl ketone] |
| < 100 | O=C(c1ccc(Br)cc1)N1CCN(C(=O)c2cc3ccc(Br)cc3[nH]2)CC1 [Compound C264, 6-bromoindol-2-yl 4-[(4-bromophenyl)carbonyl]piperazinyl ketone] |

| Compound | IC50 [nM] |
| --- | --- |
| CC(C)c1ccc(CN2CCN(C(=O)/C=C/c3ccc(Br)cc3)CC2)cc1 [Compound C103, (2E)-3-(4-bromophenyl)-1-(4-{[4-(methylethyl)phenyl]methyl}piperazinyl)prop-2-en-1-one] | < 100 |
| (2E)-3-phenyl-1-[4-benzylpiperazinyl]prop-2-en-1-one [Compound C337] | < 100 |
